Structures can show the parent of a compound that is named as a salt.
Experiments:
Assay type in all cases: cell-based
[1] = test system: Eubacterium aerofaciens 1235; assay: Agar dilution susceptibility of anaerobic bacteria (Chart 1); conditions: agar dilution, 37° C., Eubacterium aerofaciens 1235
[2] = test system: Bacteroides fragilis sp. fragilis 112; assay: as above; conditions: agar dilution, 37° C.; Bacteroides fragilis sp. fragilis 112; sodium salt
[3] = test system: Bacteroides fragilis sp. fragilis 107; assay: as above; conditions: agar dilution, 37° C.; Bacteroides fragilis sp. fragilis 107; sodium salt
[4] = test system: Bacteroides fragilis sp. fragilis 2; assay: as above; conditions: agar dilution, 37° C.; Bacteroides fragilis sp. fragilis 2; sodium salt
[5] = test system: Bacteroides melaninogenicus 2736; assay: as above; conditions: agar dilution, 37° C., Bacteroides melaninogenicus 2736
[6] = test system: Bacteroides corrodens 1874; assay: as above; conditions: agar dilution, 37° C., Bacteroides corrodens 1874
Peptococcus prevoti 1281 = assay: as above; conditions: agar dilution, 37° C.
[7] = test system: Bacteroides fragilis sp. fragilis 103; assay: as above; conditions: agar dilution, 37° C.; Bacteroides fragilis sp. fragilis 103; sodium salt
[8] = test system: Bacteroides fragilis sp. thetaiotaomicron 1900A; assay: as above; conditions: agar dilution, 37° C.; Bacteroides fragilis sp. thetaiotaomicron 1900A; sodium salt
[9] = test system: Peptostreptococcus intermedius 1264; assay: as above; conditions: agar dilution, 37° C., Peptostreptococcus intermedius 1264
[10] = test system: Bacteroides fragilis sp. fragilis 1936B; assay: as above; conditions: agar dilution, 37° C., Bacteroides fragilis sp. fragilis 1936B
[11] = test system: Bacteroides melaninogenicus 1856/28; assay: as above; conditions: agar dilution, 37° C., Bacteroides melaninogenicus 1856/28
[12] = test system: Bacteroides fragilis sp. fragilis 111; assay: as above; conditions: agar dilution, 37° C.; Bacteroides fragilis sp. fragilis 111; sodium salt
[13] = test system: Clostridium perfringens 81; assay: microbe, parasite or virus in culture; conditions: agar dilution, 37° C.
[14] = test system: Bacteroides fragilis sp. fragilis 9; assay: Agar dilution susceptibility of anaerobic bacteria (Chart 1); conditions: agar dilution, 37° C.; Bacteroides fragilis sp. fragilis 9; sodium salt
[15] = test system: Bacteroides fragilis sp. fragilis 108; assay: as above; conditions: agar dilution, 37° C.; Bacteroides fragilis sp. fragilis 108; sodium salt
[16] = test system: Bacteroides fragilis sp. fragilis 113; assay: as above; conditions: agar dilution, 37° C.; Bacteroides fragilis sp. fragilis 113; sodium salt
[17] = test system: Bacteroides fragilis sp. fragilis 62; assay: as above; conditions: agar dilution, 37° C.; Bacteroides fragilis sp. fragilis 62; sodium salt
[18] = test system: Bacteroides fragilis sp. vulgatis 1563; assay: as above; conditions: agar dilution, 37° C.; Bacteroides fragilis sp. vulgatis 1563; sodium salt
[19] = test system: Bacteroides fragilis sp. fragilis 1877; assay: as above; conditions: agar dilution, 37° C.; Bacteroides fragilis sp. fragilis 1877; sodium salt
[20] = test system: Bacteroides vulgatis 1211; assay: as above; conditions: agar dilution, 37° C., Bacteroides vulgatis 1211
[21] = test system: Bacteroides fragilis sp. fragilis 110; assay: as above; conditions: agar dilution, 37° C.; Bacteroides fragilis sp. fragilis 110; sodium salt
[22] = test system: Peptostreptococcus anaerobius 1428; assay: as above; conditions: agar dilution, 37° C., Peptostreptococcus anaerobius 1428
[23] = test system: Bacteroides fragilis sp. thetaiotaomicron 1438; assay: as above; conditions: agar dilution, 37° C.; Bacteroides fragilis sp. thetaiotaomicron 1438; sodium salt
[24] = test system: Fusobacterium necrophorum 6054A; assay: as above; conditions: agar dilution, 37° C., Fusobacterium necrophorum 6054A
[25] = test system: Bacteroides fragilis sp. fragilis 1451; assay: as above; conditions: agar dilution, 37° C.; Bacteroides fragilis sp. fragilis 1451; sodium salt
[26] = test system: Bacteroides fragilis sp. fragilis 1470; assay: as above; conditions: agar dilution, 37° C.; Bacteroides fragilis sp. fragilis 1470; sodium salt
[27] = test system: Clostridium septicum 1128; assay: as above; conditions: 37° C.
Experimental: The susceptibility of anaerobic bacteria, both gram positive and gram negative, to a representative number of the novel compounds of this application was determined using the agar dilution method. The bacteria used were isolated from patients hospitalized at the Indiana Univerisity Medical Center. The isolates were identified in the anaerobe laboratory of the Medical Center by the criteria established by Dowell et al., Laboratory Methods in Anaerobic Bacteriology. Public Health Serv. Publ. NO. 1803 (1968) [Center for Disease Control, Atlanta, Ga.]; and by Smith et al., The Pathogenic Anaerobic Bacteria, pages 96- 136 (1968) [Charles C. Thomas, Publisher, Springfield, Ill.]. All the organisms were maintained in chopped meat glucose medium (Scott Labs) at room temperature.
The method used for the agar dilution tests was based on the studies of Sutter et al., Antimicrob. Ag. Chemother. 3, 188-193 (1973). The strains of anaerobic bacteria were grown in 16×× 120 mm. tubes for 16 to 18 hours in Thioglycolate medium without indicator-- 135C (Becton, Dickinson and Co.), to which was added 5 mcg. of hemin per milliliter prior to autoclaving, plus 1 mg. of sodium bicarbonate and 0.1 mcg. of filter-sterilized menadione per milliliter after autoclaving. The strains were adjusted to the turbidity of the No. 1 McFarland standard in Thioglycolate medium without indicator-- 135C containing an additional 0.13 percent Bacto-agar (Difco). Each strain was then applied to the surface of the petri plate (100 mm× 15 mm.) by means of a replicator.
For the agar dilution studies, two-fold dilutions of the test compounds were prepared in deionized water to which was then added laked sheep blood and filter-sterilized menadione so the concentrations after the agar dilution were 5 percent and 10 mcg./ml. respectively. An equal volume of double strength Brucella agar (Becton, Dickinson and Co.) was mixed with each dilution in a water bath held at 50° C. and then poured onto the petri dishes.
All of the procedures were done inside a plastic glove box, except for the incubation of the growth tubes and the pouring of the plates. After the plates hardened, they were put inside the glove box for a minimum of 2 hours before they were inoculated. Generally, the glove box procedures of Aranki et al., Applied Microbiology 17, 568-576 (1969), were followed, but the following modifications were used. Dry materials were introduced into the glove box by evacuating the lock to 28 inches of mercury and filling once with nitrogen gas, followed by evacuating in the same manner and filling with an 80 percent nitrogen plus 10 percent CO2 plus 10 percent hydrogen gas mixture. Liquid media and agar plates were introduced into the glove box by evacuating the lock to 10 inches of mercury and filling with gas four times. The nitrogen gas was used to fill the lock for the first two cycles of evacuation, with the gas mixture described above used for the final two fillings.
All the plates were incubated at 37° C. in Gas Pak jars (Becton, Dickinson and Co.) containing palladium-coated alumina catalysts (reactivated after each use). The results of the agar dilution tests were read after about 24 hours of incubation. The minimum inhibitory concentration (MIC) was recorded as the lowest concentration of test compound at which there was no growth.
The test compounds are identified by the number of the example describing their preparation. The antibiotics clindamycin (C), and erythromycin (E) were also run simultaneously with the novel compounds of this application,for comparison purposes, and the results are included in Chart 1 below.

[28] = test system: Peptococcus asaccharolyticus 1302; assay: as above; conditions: agar dilution, 37° C., Peptococcus asaccharolyticus 1302
[29] = test system: Actinomyces israelii W855; assay: as above; conditions: Actinomyces israelii, W855, 24 h, read-out: 24 Hr. MIC, agar dilution, 37° C.
[30] = test system: Propionibacterium acnes 79; assay: as above; conditions: Cutibacterium acnes, 79, 24 h, read-out: 24 Hr. MIC
[31] = test system: Fusobacterium symbiosum 1470; assay: as above; conditions: agar dilution, 37° C., Fusobacterium symbiosum 1470

Cn1nc(-c2ncc([N+](=O)[O-])n2C)c(C#N)c1NC(=O)C(=O)c1ccccc1 [Example 11, N-[4-Cyano-1-methyl-3-(1-methyl-5-nitroimidazol-2-yl)pyrazol-5-yl]-2-phenylglyoxylamide, sodium salt] was tested, and the “24 Hr. MIC” value ([1]; sodium salt) was 0.5 µg/mL, the “24 Hr. MIC” value [2] was 0.06 µg/mL and the “24 Hr. MIC” value [3] was 0.06 µg/mL. The “24 Hr. MIC” value [4] was 0.06 µg/mL, the “24 Hr. MIC” value ([5]; sodium salt) was no more than 0.03 µg/mL and the “24 Hr. MIC” value ([6]; sodium salt) was 0.25 µg/mL. For the same compound, the “24 Hr. MIC” value (Peptococcus prevoti 1281; sodium salt) was 2 µg/mL, the “24 Hr. MIC” value [7] was 0.06 µg/mL and the “24 Hr. MIC” value [8] was 0.125 µg/mL. For the same compound, the “24 Hr. MIC” value ([9]; sodium salt) was 32 µg/mL, the “24 Hr. MIC” value ([10]; sodium salt) was 0.06 µg/mL and the “24 Hr. MIC” value ([11]; sodium salt) was 16 µg/mL. For the same compound, the “24 Hr. MIC” value [12] was 0.06 µg/mL, the “24 Hr. MIC” value ([13]; sodium salt) was 0.5 µg/mL and the “24 Hr. MIC” value [14] was 0.06 µg/mL. For the same compound, the “24 Hr. MIC” value [15] was 0.06 µg/mL, the “24 Hr. MIC” value [16] was 0.125 µg/mL and the “24 Hr. MIC” value [17] was 0.06 µg/mL. For the same compound, the “24 Hr. MIC” value [18] was 0.25 µg/mL, the “24 Hr. MIC” value [19] was 0.06 µg/mL and the “24 Hr. MIC” value ([20]; sodium salt) was 1.0 µg/mL. For the same compound, the “24 Hr. MIC” value [21] was 0.06 µg/mL, the “24 Hr. MIC” value ([22]; sodium salt) was 0.25 µg/mL and the “24 Hr. MIC” value [23] was 0.125 µg/mL. For the same compound, the “24 Hr. MIC” value ([24]; sodium salt) was 0.25 µg/mL, the “24 Hr. MIC” value [25] was 0.125 µg/mL and the “24 Hr. MIC” value [26] was 0.06 µg/mL. For the same compound, the “24 Hr. MIC” value ([27]; sodium salt) was 0.25 µg/mL.

Cn1nc(-c2ncc([N+](=O)[O-])n2C)c(C#N)c1NC(=O)C(=O)NN [Example 8, 5-[4-Cyano-1-methyl-3-(1-methyl-5-nitroimidazol-2-yl)pyrazol-5-yl]semioxamazide, sodium salt] was tested, and the “24 Hr. MIC” value ([1]; sodium salt) was 4 µg/mL, the “24 Hr. MIC” value ([5]; sodium salt) was 0.5 µg/mL and the “24 Hr. MIC” value ([6]; sodium salt) was 1.0 µg/mL. For the same compound, the “24 Hr. MIC” value (Peptococcus prevoti 1281; sodium salt) was 32 µg/mL, the “24 Hr. MIC” value ([10]; sodium salt) was 1.0 µg/mL and the “24 Hr. MIC” value ([11]; sodium salt) was 16 µg/mL. The “24 Hr. MIC” value ([28]; sodium salt) was 1.0 µg/mL, the “24 Hr. MIC” value ([13]; sodium salt) was 2 µg/mL and the MIC [29] was greater than 128 µg/mL. The MIC [30] was greater than 128 µg/mL, the “24 Hr. MIC” value ([20]; sodium salt) was 1.0 µg/mL and the “24 Hr. MIC” value ([22]; sodium salt) was 0.5 µg/mL. For the same compound, the “24 Hr. MIC” value ([24]; sodium salt) was 0.5 µg/mL and the “24 Hr. MIC” value ([31]; sodium salt) was 0.5 µg/mL.

For CCOC(=O)C(=O)Nc1c(C#N)c(-c2ncc([N+](=O)[O-])n2C)nn1C [Example 4, N-[4-Cyano-1-methyl-3-(1-methyl-5-nitroimidazol-2-yl)pyrazol-5-yl]oxamic acid, ethyl ester, ammonium salt], the “24 Hr. MIC” value ([1]; ammonium salt) was no more than 0.5 µg/mL, the “24 Hr. MIC” value ([5]; ammonium salt) was no more than 0.5 µg/mL and the “24 Hr. MIC” value ([6]; ammonium salt) was no more than 0.5 µg/mL. For the same compound, the “24 Hr. MIC” value (Peptococcus prevoti 1281; ammonium salt) was 32 µg/mL, the “24 Hr. MIC” value ([9]; ammonium salt) was no more than 0.5 µg/mL and the “24 Hr. MIC” value ([10]; ammonium salt) was no more than 0.5 µg/mL. For the same compound, the “24 Hr. MIC” value ([11]; ammonium salt) was 1.0 µg/mL, the “24 Hr. MIC” value ([28]; ammonium salt) was no more than 0.5 µg/mL and the “24 Hr. MIC” value ([13]; ammonium salt) was no more than 0.5 µg/mL. For the same compound, the MIC [29] was greater than 128 µg/mL, the MIC [30] was greater than 128 µg/mL and the “24 Hr. MIC” value ([20]; ammonium salt) was no more than 0.5 µg/mL. The “24 Hr. MIC” value ([22]; ammonium salt) was no more than 0.5 µg/mL, the “24 Hr. MIC” value ([24]; ammonium salt) was no more than 0.5 µg/mL and the “24 Hr. MIC” value ([31]; ammonium salt) was no more than 0.5 µg/mL. For the same compound, the “24 Hr. MIC” value ([27]; ammonium salt) was 16 µg/mL.
